Laboratory results taken from PubChem BioAssay AID248 (DTP/NCI, 2004).
Where “and” joins values, the source holds several entries; their conditions need not be identical. Equal values may be shown once. Toxic doses and inconclusive results are not listed. No stated cut-off is given here; in the data, active means T/C of 150% or more; inactive means T/C below 125%.

Test system: L1210 leukemia ip in BDF1 mice, survival T/C
Test: NCI In Vivo Anticancer Drug Screen. Data for tumor model L1210 Leukemia (intraperitoneal) in B6D2F1 (BDF1) mice
Conditions: endpoint: mean survival time, higher = longer survival
Summary of the method: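 Tumor cells were implanted, animals were treated, and survival was followed. The result divides the treated measurement by the vehicle-control measurement.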

[1] = dose: 100.0 mg/kg/injection, schedule: Q04DX002 (ip), vehicle: Klucel (hydroxypropylcellulose) (HPC)
[2] = dose: 200.0 mg/kg/injection, schedule: Q04DX002 (ip), vehicle: Klucel (hydroxypropylcellulose) (HPC)
[3] = dose: 400.0 mg/kg/injection, schedule: Q04DX002 (ip), vehicle: Klucel (hydroxypropylcellulose) (HPC)
[4] = dose: 100.0 mg/kg/injection, schedule: Q01DX009 (ip), vehicle: Klucel (hydroxypropylcellulose) (HPC)
[5] = dose: 100.0 mg/kg/injection, schedule: Q04DX003 (ip), vehicle: Klucel (hydroxypropylcellulose) (HPC)
[6] = dose: 200.0 mg/kg/injection, schedule: Q01DX009 (ip), vehicle: Klucel (hydroxypropylcellulose) (HPC)
[7] = dose: 200.0 mg/kg/injection, schedule: Q04DX003 (ip), vehicle: Klucel (hydroxypropylcellulose) (HPC)
[8] = dose: 400.0 mg/kg/injection, schedule: Q01DX009 (ip), vehicle: Klucel (hydroxypropylcellulose) (HPC)
[9] = dose: 400.0 mg/kg/injection, schedule: Q04DX003 (ip), vehicle: Klucel (hydroxypropylcellulose) (HPC)
[10] = dose: 200.0 mg/kg/injection, schedule: Q04DX003 (ip), vehicle: saline with Tween-80
[11] = dose: 25.0 mg/kg/injection, schedule: Q01DX009 (ip), vehicle: Klucel (hydroxypropylcellulose) (HPC)
[12] = dose: 25.0 mg/kg/injection, schedule: Q04DX003 (ip), vehicle: Klucel (hydroxypropylcellulose) (HPC)
[13] = dose: 50.0 mg/kg/injection, schedule: Q04DX003 (ip), vehicle: Klucel (hydroxypropylcellulose) (HPC)
[14] = dose: 100.0 mg/kg/injection, schedule: Q01DX009 (ip), vehicle: saline with Tween-80
[15] = dose: 400.0 mg/kg/injection, schedule: Q01DX009 (ip), vehicle: saline with Tween-80

Measured: T/C

CSc1ncnc2c1ncn2CC(=O)[C@@]1(O)CC[C@H]2[C@@H]3CCC4=CC(=O)CC[C@]4(C)[C@H]3[C@@H](O)C[C@@]21C
inactive: dose: 100.0 mg/kg/injection, schedule: Q01DX001 (sc), vehicle: steriod suspending solution 99 % of control | dose: 200.0 mg/kg/injection, schedule: Q01DX001 (sc), vehicle: steriod suspending solution 100 % of control | dose: 400.0 mg/kg/injection, schedule: Q01DX001 (sc), vehicle: steriod suspending solution 100 % of control

COc1ccccc1CN1CCCOP1(=O)Nc1ccccc1C (stereo not drawn)
inactive: dose: 50.0 mg/kg/injection, schedule: Q01DX001 (ip), vehicle: carboxymethylcellulose (CMC) 109 % of control | dose: 100.0 mg/kg/injection, schedule: Q01DX001 (ip), vehicle: carboxymethylcellulose (CMC) 93 % of control | dose: 200.0 mg/kg/injection, schedule: Q01DX001 (ip), vehicle: carboxymethylcellulose (CMC) 96 % of control | dose: 400.0 mg/kg/injection, schedule: Q01DX001 (ip), vehicle: carboxymethylcellulose (CMC) 91 % of control

COc1ccc(C(=O)CC2(O)C(=O)Nc3ccc(Br)cc32)cc1 (stereo not drawn)
inactive: [1] 92 % of control | [2] 89 % of control | [3] 92 % of control

CCCCNC(=O)Nc1cc(C)cc(C)n1
inactive: [4] 100 % of control | [5] 94 % of control | [6] 104 % of control | [7] 102 % of control | [8] 91 % of control | [9] 98 % of control

C(=Nc1ccc2c3c(cccc13)-c1ccccc1-2)c1ccc2c(c1)OCO2
inactive: dose: 100.0 mg/kg/injection, schedule: Q01DX001 (ip), vehicle: other 101 % of control | dose: 200.0 mg/kg/injection, schedule: Q01DX001 (ip), vehicle: other 97 % of control | dose: 400.0 mg/kg/injection, schedule: Q01DX001 (ip), vehicle: other 94 % of control

NC1=NCCS1
inactive: dose: 25.0 mg/kg/injection, schedule: Q04DX002 (ip), vehicle: saline 103 % of control | dose: 50.0 mg/kg/injection, schedule: Q04DX002 (ip), vehicle: saline 110 % of control | dose: 100.0 mg/kg/injection, schedule: Q04DX002 (ip), vehicle: saline 95 % of control and 103 % of control

CC(C)C(=O)[O][Sn]([c]1ccccc1)([c]1ccccc1)[c]1ccccc1
inactive: dose: 12.5 mg/kg/injection, schedule: Q04DX002 (ip), vehicle: Klucel (hydroxypropylcellulose) (HPC) 97 % of control | dose: 25.0 mg/kg/injection, schedule: Q04DX002 (ip), vehicle: Klucel (hydroxypropylcellulose) (HPC) 93 % of control | dose: 50.0 mg/kg/injection, schedule: Q04DX002 (ip), vehicle: Klucel (hydroxypropylcellulose) (HPC) 93 % of control

C=CCNc1nnnn1CC=C
inactive: dose: 100.0 mg/kg/injection, schedule: Q04DX003 (ip), vehicle: saline with Tween-80 102 % of control | [10] 102 % of control | dose: 400.0 mg/kg/injection, schedule: Q04DX003 (ip), vehicle: saline with Tween-80 96 % of control

Cc1cc(=O)c(CCl)n[nH]1
inactive: [11] 115 % of control | [12] 120 % of control | [13] 116 % of control | [5] 97 % of control and 89 % of control

COCCNC(=O)Nc1cccc2c1CCCC2
inactive: [14] 97 % of control | dose: 200.0 mg/kg/injection, schedule: Q01DX009 (ip), vehicle: saline with Tween-80 99 % of control | [15] 103 % of control

CC1(C)SC(C(NC(=O)Cc2ccccc2)C(=O)O)NC1C(=O)O (stereo not drawn)
inactive: [14] 92 % of control | [15] 97 % of control

CC(C)(C)c1cc(C(=S)N2CCN(C(=S)c3cc(C(C)(C)C)c(O)c(C(C)(C)C)c3)CC2)cc(C(C)(C)C)c1O
inactive: [5] 97 % of control | [7] 94 % of control | [9] 96 % of control

C[C@]12C[C@H](O)[C@H]3[C@@H](CCC4=CC(=O)CC[C@@]43C)[C@@H]1CC[C@@H]2C(=O)CO
inactive: dose: 25.0 mg/kg/injection, schedule: Q01DX009 (sc), vehicle: steriod suspending solution 101 % of control | dose: 25.0 mg/kg/injection, schedule: Q01DX010 (sc), vehicle: steriod suspending solution 102 % of control | dose: 50.0 mg/kg/injection, schedule: Q01DX009 (sc), vehicle: steriod suspending solution 95 % of control and 103 % of control | dose: 50.0 mg/kg/injection, schedule: Q01DX010 (sc), vehicle: steriod suspending solution 104 % of control | dose: 100.0 mg/kg/injection, schedule: Q01DX009 (sc), vehicle: steriod suspending solution 94 % of control and 107 % of control | dose: 100.0 mg/kg/injection, schedule: Q01DX010 (sc), vehicle: steriod suspending solution 102 % of control | dose: 200.0 mg/kg/injection, schedule: Q01DX009 (sc), vehicle: steriod suspending solution 105 % of control and 113 % of control | dose: 200.0 mg/kg/injection, schedule: Q01DX010 (sc), vehicle: steriod suspending solution 102 % of control

O=C1Nc2ccc(Cl)cc2C(c2ccccc2)=NC1O (stereo not drawn)
inactive: [11] 103 % of control | [12] 98 % of control | dose: 50.0 mg/kg/injection, schedule: Q01DX009 (ip), vehicle: Klucel (hydroxypropylcellulose) (HPC) 101 % of control | [13] 104 % of control | [4] 98 % of control | [5] 104 % of control | [6] 107 % of control | [7] 114 % of control | [8] 91 % of control | [9] 111 % of control

CC(C)c1ccccc(=O)c1O.CC(C)c1ccccc(=O)c1O.[Cu]
inactive: [10] 91 % of control

COc1cc(NC(C)=O)ccn1
inactive: dose: 100.0 mg/kg/injection, schedule: Q04DX003 (ip), vehicle: acetone 89 % of control | dose: 200.0 mg/kg/injection, schedule: Q04DX003 (ip), vehicle: acetone 100 % of control | dose: 400.0 mg/kg/injection, schedule: Q04DX003 (ip), vehicle: acetone 110 % of control

CN(C)c1ccc(C=Nc2ccc([N+](=O)[O-])cc2O)cc1
inactive: dose: 100.0 mg/kg/injection, schedule: Q01DX001 (ip), vehicle: saline 97 % of control | dose: 200.0 mg/kg/injection, schedule: Q01DX001 (ip), vehicle: saline 95 % of control | dose: 400.0 mg/kg/injection, schedule: Q01DX001 (ip), vehicle: saline 92 % of control

c1ccc(NC2CCCCC2)cc1
inactive: dose: 50.0 mg/kg/injection, schedule: Q01DX003 (ip), vehicle: Klucel (hydroxypropylcellulose) (HPC) 103 % of control | dose: 100.0 mg/kg/injection, schedule: Q01DX003 (ip), vehicle: Klucel (hydroxypropylcellulose) (HPC) 101 % of control | dose: 200.0 mg/kg/injection, schedule: Q01DX003 (ip), vehicle: Klucel (hydroxypropylcellulose) (HPC) 101 % of control

CCCCCCCCCCCCCCCCCCNC(=O)Nc1ccc(C)cc1
inactive: dose: 100.0 mg/kg/injection, schedule: Q01DX009 (sc), vehicle: olive oil, sesame oil, peanut oil 112 % of control | dose: 100.0 mg/kg/injection, schedule: Q04DX003 (sc), vehicle: olive oil, sesame oil, peanut oil 114 % of control | dose: 200.0 mg/kg/injection, schedule: Q01DX009 (sc), vehicle: olive oil, sesame oil, peanut oil 106 % of control | dose: 200.0 mg/kg/injection, schedule: Q04DX003 (sc), vehicle: olive oil, sesame oil, peanut oil 104 % of control | dose: 400.0 mg/kg/injection, schedule: Q01DX009 (sc), vehicle: olive oil, sesame oil, peanut oil 106 % of control | dose: 400.0 mg/kg/injection, schedule: Q04DX003 (sc), vehicle: olive oil, sesame oil, peanut oil 98 % of control

COc1ccc(-c2cc(=O)c3c(O)c(OC)c(O)cc3o2)cc1
inactive: dose: 20.0 mg/kg/injection, schedule: Q01DX Z (ip), vehicle: saline 101 % of control | dose: 40.0 mg/kg/injection, schedule: Q01DX Z (ip), vehicle: saline 108 % of control | dose: 80.0 mg/kg/injection, schedule: Q01DX Z (ip), vehicle: saline 95 % of control

NC(=O)c1ccc[n+](CCc2c[nH]c3ccccc23)c1
inactive: dose: 75.0 mg/kg/injection, schedule: Q01DX001 (ip), vehicle: saline with Tween-80 94 % of control | dose: 150.0 mg/kg/injection, schedule: Q01DX001 (ip), vehicle: saline with Tween-80 101 % of control | dose: 300.0 mg/kg/injection, schedule: Q01DX001 (ip), vehicle: saline with Tween-80 98 % of control

Cc1cnc(N/N=C/c2ccccc2)nc1-c1ccccc1O
inactive: [1] 103 % of control | [2] 100 % of control | [3] 92 % of control
